Test results from ChEMBL document CHEMBL1201862, “PubChem BioAssay data set” (2004).
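Where inhibition never reached the appropriate level, the endpoint shown equals the highest concentration tested. Otherwise, values were interpolated linearly from a five-concentration, 48-hour dose response in 96-well plates. GI50 = concentration required for 50% inhibition of growth.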 The source made the active and inactive calls. Cut-off read from the data, not from the text of the source: active = GI50 up to about 1.1 µM and inactive = higher.

Assays:
Experiment in all cases: growth of human tumour cells (NCI), 48 h
786-0 = test system: 786-0
A498 = test system: A498
A549 = test system: A549
ACHN = test system: ACHN
BT-549 = test system: BT-549
CAKI-1 = test system: CAKI-1
CCRF-CEM = test system: CCRF-CEM
COLO 205 = test system: COLO 205
DU-145 = test system: DU-145
EKVX = test system: EKVX
HCC 2998 = test system: HCC 2998
HCT-116 = test system: HCT-116
HCT-15 = test system: HCT-15
HL-60 = test system: HL-60
HOP-62 = test system: HOP-62
HOP-92 = test system: HOP-92
HT-29 = test system: HT-29
Hs-578T = test system: Hs-578T
IGROV-1 = test system: IGROV-1
K562 = test system: K562
KM12 = test system: KM12
LOX IMVI = test system: LOX IMVI
M14 = test system: M14
MCF7 = test system: MCF7
MDA-MB-231 = test system: MDA-MB-231
MDA-MB-435 = test system: MDA-MB-435
MDA-N = test system: MDA-N
Malme-3M = test system: Malme-3M
NCI-H226 = test system: NCI-H226
NCI-H23 = test system: NCI-H23
NCI-H460 = test system: NCI-H460
NCI-H522 = test system: NCI-H522
NCI/ADR-RES = test system: NCI/ADR-RES
OVCAR-3 = test system: OVCAR-3
OVCAR-4 = test system: OVCAR-4
OVCAR-5 = test system: OVCAR-5
OVCAR-8 = test system: OVCAR-8
PC-3 = test system: PC-3
RPMI-8226 = test system: RPMI-8226
RXF 393 = test system: RXF 393
SF-268 = test system: SF-268
SF-295 = test system: SF-295
SK-MEL-28 = test system: SK-MEL-28
SK-MEL-2 = test system: SK-MEL-2
SK-MEL-5 = test system: SK-MEL-5
SK-OV-3 = test system: SK-OV-3
SN12C = test system: SN12C
SNB-19 = test system: SNB-19
SNB-75 = test system: SNB-75
SR = test system: SR
SW-620 = test system: SW-620
T47D = test system: T47D
TK-10 = test system: TK-10
U-251 = test system: U-251
UACC-257 = test system: UACC-257
UACC-62 = test system: UACC-62
UO-31 = test system: UO-31

In the case of `CN(C)CCC(C(=O)C(C)(C)C)c1ccccn1` (configuration not stated), the GI50 (786-0) is reported as > 100 µM (inactive), the GI50 (A498) is reported as > 100 µM (inactive) and the GI50 (A549) is reported as > 100 µM (inactive). The GI50 (ACHN) was > 100 µM (inactive), the GI50 (BT-549) was > 100 µM (inactive) and the GI50 (CAKI-1) was > 100 µM (inactive). For the same compound, the GI50 (CCRF-CEM) was > 100 µM (inactive), the GI50 (COLO 205) was > 100 µM (inactive) and the GI50 (DU-145) was > 100 µM (inactive). The GI50 (EKVX) was > 100 µM (inactive), the GI50 (HCC 2998) was > 100 µM (inactive) and the GI50 (HCT-116) was > 100 µM (inactive). For the same compound, the GI50 (HCT-15) was over 100 µM, the GI50 (HL-60) was > 100 µM (inactive) and the GI50 (HOP-62) was > 100 µM (inactive). For the same compound, the GI50 (HOP-92) was > 100 µM (inactive), the GI50 (HT-29) was > 100 µM (inactive) and the GI50 (Hs-578T) was > 100 µM (inactive). For the same compound, the GI50 (IGROV-1) was > 100 µM (inactive), the GI50 (K562) was > 100 µM (inactive) and the GI50 (KM12) was > 100 µM (inactive). For the same compound, the GI50 (LOX IMVI) was > 100 µM (inactive), the GI50 (M14) was > 100 µM (inactive) and the GI50 (MCF7) was > 100 µM (inactive). The GI50 (MDA-MB-231) was > 100 µM (inactive), the GI50 (MDA-MB-435) was > 100 µM (inactive) and the GI50 (MDA-N) was > 100 µM (inactive). For the same compound, the GI50 (Malme-3M) was > 100 µM (inactive), the GI50 (NCI-H226) was > 100 µM (inactive) and the GI50 (NCI-H23) was > 100 µM (inactive). The GI50 (NCI-H460) was > 100 µM (inactive), the GI50 (NCI-H522) was > 100 µM (inactive) and the GI50 (NCI/ADR-RES) was > 100 µM (inactive). The GI50 (OVCAR-3) was < 0.01 µM (active), the GI50 (OVCAR-4) was > 100 µM (inactive) and the GI50 (OVCAR-5) was > 100 µM (inactive). For the same compound, the GI50 (OVCAR-8) was > 100 µM (inactive), the GI50 (PC-3) was > 100 µM (inactive) and the GI50 (RPMI-8226) was > 100 µM (inactive). The GI50 (RXF 393) was > 100 µM (inactive), the GI50 (SF-268) was > 100 µM (inactive) and the GI50 (SF-295) was > 100 µM (inactive). The GI50 (SK-MEL-28) was > 100 µM (inactive), the GI50 (SK-MEL-2) was > 100 µM (inactive) and the GI50 (SK-MEL-5) was > 100 µM (inactive). For the same compound, the GI50 (SK-OV-3) was > 100 µM (inactive), the GI50 (SN12C) was > 100 µM (inactive) and the GI50 (SNB-19) was > 100 µM (inactive). For the same compound, the GI50 (SNB-75) was > 100 µM (inactive), the GI50 (SR) was > 100 µM (inactive) and the GI50 (SW-620) was > 100 µM (inactive). For the same compound, the GI50 (T47D) was > 100 µM (inactive), the GI50 (TK-10) was > 100 µM (inactive) and the GI50 (U-251) was > 100 µM (inactive). The GI50 (UACC-257) was > 100 µM (inactive), the GI50 (UACC-62) was > 100 µM (inactive) and the GI50 (UO-31) was > 100 µM (inactive).
